# According to patent publication US11325909B2, “Crystalline 2-amino-2-(hydroxymethyl)propane-1,3-diol salt of 4-(4-(1-isopropyl-7-OXO-1,4,6,7-tetrahydrospiro[indazole-5,4′-piperidine]-1′-carbonyl)-6-methoxypryridin-2-YL)benzoic acid” (Pfizer Inc., priority 2017, dated 2022):
# Counter-ions that a name gives are not always drawn.
# Assays:
# [1] = Hygroscopicity observed during salt evaluation (mainly through visualization); format: physicochemical
# From the text: Determining whether a solid would form was just one factor in this evaluation. […] See, e.g., C. Saal, A. Becker, Euro.
# [2] = Thermodynamic solubility (24 hours agitation at RT, filtration, nitrogen detector); format: physicochemical; details: for Solubility pH 1.2: pH 1.2, 24 hours at RT; for Solubility pH 6.5: pH 6.5, 24 hours at RT; for Solubility pH 7.4: pH 7.4, 24 hours at RT
# Procedure: Four hundred fifty microliters (450 μL) of the desired medium was added to the filter and agitated for 24 hours at RT. After 24 hours, the sample was filtered and the filtrates were injected into a nitrogen detector for quantification.
# pH 1.2: Weigh out 1.0 g of NaCl and transfer to a beaker. Add about 450 mL HPLC-grade water to dissolve the NaCl. […] Transfer the solution to a 500 mL volumetric flask and bring to 500 mL with HPLC-grade water.
# pH 6.5: Titrate about 250 mL of 50 mM NaPO4 dibasic with about 500 mL of 50 mM NaPO4 monobasic to pH 6.5. The ending total volume is the volume at the point the solution has a pH 6.5 is reached when adding 50 mM NaPO4 monobasic to the 50 mM NaPO4 dibasic.
# pH 7.4: Titrate about 200 mL of 50 mM NaPO4 dibasic with about 50 mL of 50 mM NaPO4 monbasic to pH 7.4. The ending total volume is the volume at the point the solution has a pH 7.4 is reached when adding 50 mM NaPO4 monobasic to the 50 mM NaPO4 dibasic.
# [3] = Pharmacokinetic studies, oral dose, male (fasted) cynomolgus monkeys; format: in vivo
# Procedure: Pharmacokinetic studies were conducted in male (fasted) cynomolgus monkeys (n=2 for each formulation). An oral pill was prepared to compare Form 1 and Form 2. […] The dosage was administered as an oral dose containing 2, 5, or 10 mg/kg, respectively. Serial blood samples were collected at the 0, 0.25, 0.5, 1, 2, 4, 7, and 24-hour time points via the femoral vein by syringe and transferred into K3EDTA vacutainers. Blood samples were then centrifuged, the plasma harvested and stored at −20° C. or −80° C. until analysis.
# The appropriate amount of either Form 1 or Form 2 was transferred into a mortar. The corresponding amount of the excipient blend was then geometrically added to the mortar and mixed thoroughly with the respective Form 1 or Form 2 using a pestle. The mixture was transferred to a container, and blended on a Turbula mixer for 5 minutes to provide a blend containing the respective Form 1 or Form 2 mixed with the excipients.
# The tablets were compressed to achieve 100 mg tablet weight, with target tablet hardness between 4 and 9 kp at the press speed of 15 tablets per minute.
# To prepare a representative batch size of 1 L of 0.5% (w/v) methylcellulose (Methocel® A4M) solution, approximately 0.4 L of deionized water was heated to 80-90° C. after which 5 grams of methylcellulose (Methocel® A4M) was added and mixed thoroughly until the particles were thoroughly wetted. The mixture was then removed from heat. Cold water (0.6 L) was then added, while continuously stirring in the ice bath, until all the methylcellulose particles were dissolved.
# The solid powder was triturated (lumps broken) using a pestle. Two mL of 0.5% w/v methylcellulose (Methocel® A4M) was added to the powder drop-wise. The vehicle and free acid were well mixed to form a smooth paste. The remaining of the vehicle was added in small aliquots while mixing until a uniform suspension was obtained. […] Twenty-two microliter of Polysorbate 80 (Tween® 80) was added to the suspension.
# The solid powder was triturated (lumps broken) using a pestle. Small amount of 0.5% w/v methylcellulose (Methocel® A4M) was added to the powder to form a smooth paste. The remaining of the vehicle was added in small aliquots while mixing until a uniform suspension was obtained. The suspension was transferred to a container and made up to final volume of 50 mL.
# [4] = Hygroscopicity by dynamic vapor sorption; format: physicochemical; details: at 90% RH/25° C.
# Procedure: Hygroscopicity was measured using a dynamic vapor sorption instrument manufactured by TA Instruments or Surface Measurement Systems. A sample of each Form was exposed to incremental RH levels until either a weight equilibrium (seen as a plateau) of ≤0.001% weight change in 5 minutes was met, or a maximum time of 120 minutes at each RH level. After the shorter of 0.001% weight equilibrium in 5 minutes or 120 minutes, the sample was then exposed to the next RH level. There was an initial drying period where weight may have been lost with Form 1, no drying was utilized for Form 2. The process starts at 10% RH with RH increased to 20% RH and then a 10% RH increase after each interval (0.001% in 5 minutes equilibrium or 120 min, whichever occurred first). At 90% RH, the RH was reversed back to 10% RH using the same equilibration criteria. The hygroscopicity is measured as a function of the percent weight gain measured at 90% RH.
# [5] = Thermodynamic stability of crystalline forms versus water activity; format: physicochemical; details: ambient temperature; 0.2 corresponds to 20% RH
# [6] = Immediate Release Tablet, 2 mg/kg
molecule,measurement,setting,value
[Ca] [Calcium],hygroscopicity of the isolated solid (observation),[1],too hygroscopic
same,Solubility pH 1.2,[2],13.5 μM
same,Solubility pH 6.5,[2],1500.0 μM
same,Solubility pH 7.4,[2],5050.0 μM
"COc1cc(C(=O)N2CCC3(CC2)CC(=O)c2c(cnn2C(C)C)C3)cc(-c2ccc(C(=O)O)cc2)n1 [Compound 1, 4-(4-(1-isopropyl-7-oxo-1,4,6,7-tetrahydrospiro[indazole-5,4′-piperidine]-1′-carbonyl)-6-methoxypyridin-2-yl)benzoic acid]",AUC/Dose,"[3]; Suspension, 10 mg/kg",4120 ng*h/ml/mpk
same,Solubility pH 1.2,[2]; listed as Free acid - batch A,"11.8 (avg, n = 2, μM"
same,Solubility pH 1.2,[2]; listed as Free acid - batch B,"13.0 (avg, n = 2, μM"
same,Solubility pH 1.2,[2]; listed as Free acid - batch C,<0.5 μM
same,Solubility pH 6.5,[2]; listed as Free acid - batch A,"44.7 (avg, n = 2, μM"
same,Solubility pH 6.5,[2]; listed as Free acid - batch B,"222.0 (avg, n = 2, μM"
same,Solubility pH 6.5,[2]; listed as Free acid - batch C,19.6 μM
same,Solubility pH 7.4,[2]; listed as Free acid - batch A,"255.0 (avg, n = 2, μM"
same,Solubility pH 7.4,[2]; listed as Free acid - batch B,"1700.0 (avg, n = 2, μM"
same,Solubility pH 7.4,[2]; listed as Free acid - batch C,194.0 μM
"COc1cc(C(=O)N2CCC3(CC2)CC(=O)c2c(cnn2C(C)C)C3)cc(-c2ccc(C(=O)O)cc2)n1 [Form 1, 4-(4-(1-isopropyl-7-oxo-1,4,6,7-tetrahydrospiro[indazole-5,4′-piperidine]-1′-carbonyl)-6-methoxypyridin-2-yl)benzoic acid anhydrous tris salt]",hygroscopicity (percent weight gain),[4],about 1%
same,AUC/Dose,[3]; [6],5750 ng*h/ml/mpk
same,AUC/Dose,"[3]; Suspension, 5 mg/kg",7240 ng*h/ml/mpk
same,Solubility pH 1.2,[2]; listed as Tris (Form 1),1320.0 μM
same,Solubility pH 6.5,[2]; listed as Tris (Form 1),3980.0 μM
same,Solubility pH 7.4,[2]; listed as Tris (Form 1),4770.0 μM
same,water activity at which the form is thermodynamically stable,[5],< 0.2
COc1cc(C(=O)N2CCC3(CC2)CC(=O)c2c(cnn2C(C)C)C3)cc(-c2ccc(C(=O)O)cc2)n1 [Form 2],hygroscopicity (percent weight gain),[4],about 1%
same,AUC/Dose,[3]; [6],5650 ng*h/ml/mpk
same,water activity at which the form is thermodynamically stable,[5],> 0.2
[K+] [potassium],hygroscopicity of the isolated solid (observation),[1],too hygroscopic
O=S(=O)(O)O [sulfuric acid],hygroscopicity of the isolated solid (observation),[1],very hygroscopic
sodium,hygroscopicity of the isolated solid (observation),[1],too hygroscopic
